# Assays:
# RAR [1] = test: Delta-MTV constructs, RA induction in CV-1 cells with cotransfected RAR expression vector; format: cell-based; conditions: Delta-MTV promoter; with vs without RAR expression vectors
# Protocol: (§1) Inspection of the sequences of βRE1, βRE2, and βRE3 (see FIG. 2b) identifies a tandem repeat of the 6 bp motif. The center to center separation of 11 bp between these repeats is one turn of the DNA helix. […] Apparently, a single half site element of the RARβ gene would reciprocally be responsive to the TR, ER, and/or other members of the receptor superfamily.
# (§2) Cells were transfected in 10 cm dishes with 10 μg of DNA containing 5 μg of reporter plasmid, 1-2 μg of either RSV-LUC (a), or RSV-βGAL or pCH110 (c and d), pGEM4 as carrier DNA, and for the experiments shown in a and d, 1 μg of RSV-RAR expression vector or the same amount of an RSV vector generating a nonsense transcript. Cells were harvested 1 day after addition of retinoic acid. All CAT assays represent equivalent amounts of β-galactosidase activity; β-GAL assays were normalized to luciferase activity.
# RARα = target: T1, RARα (Homo sapiens, UniProt P10276); test: ΔSV-CAT reporter cotransfection assay in CV-1 cells with RARα expression plasmid, ±RA; format: cell-based; parameters: expressed in transfected cells; host or cells: CV-1 (monkey kidney); conditions: RA 1 μM
# T1 sequence (P10276 1-462): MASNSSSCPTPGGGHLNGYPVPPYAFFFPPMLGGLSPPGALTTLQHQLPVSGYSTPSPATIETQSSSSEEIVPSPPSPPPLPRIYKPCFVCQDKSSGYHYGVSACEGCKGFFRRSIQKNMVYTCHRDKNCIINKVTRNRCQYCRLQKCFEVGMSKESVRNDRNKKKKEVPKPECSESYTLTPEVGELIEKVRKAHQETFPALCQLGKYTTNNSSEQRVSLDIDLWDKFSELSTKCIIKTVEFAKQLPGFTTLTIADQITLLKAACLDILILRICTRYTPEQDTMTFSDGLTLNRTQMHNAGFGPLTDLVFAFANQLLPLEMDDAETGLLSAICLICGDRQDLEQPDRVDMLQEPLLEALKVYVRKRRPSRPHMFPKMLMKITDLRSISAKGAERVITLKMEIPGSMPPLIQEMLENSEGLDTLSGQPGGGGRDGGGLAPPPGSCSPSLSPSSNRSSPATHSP
# Text: Receptor expression plasmids used in the following cotransfection assays have been described previously (pRShTRβ [see Thompson, et al., Proc. Natl. Acad. Sci. U.S.A. 86: 3494-3498 (1989)]; pRShRARα [see Giguere, et al., Nature 330: 624-629 (1987)]; pRShRARβ and pRshRARγ [see Ishikawa, et al., Mol. Endocrinol, 4: 837-844 (1990)]; and pRShVDR, [Schule, et al., Cell 61: 497-504 (1990)]. A basal reporter plasmid ΔSV-CAT was constructed by replacing the TK promoter in TK-CAT [Damm, et al., Nature 339: 593-597 (1989)] with the SphI-HindIII fragment of the SV40 early promoter. All of the recombinant CAT reporter plasmids used herein harbor a single copy of the indicated oligonucleotides at the unique HindIII site upstream of the SV40 promoter. Identity of the inserted oligonucleotides was confirmed by sequencing. To improve production of receptor proteins in COS cells, a new eukaryotic expression vector pCMX was prepared by modifying the plasmid CDM8 [Seed, B., Nature 329: 840-842 (1987)]. The CDM8 was cut with MluI and StuI in order to release the DNA fragment encoding the CMV/T7 promoter, SV40 small t intron/poly A signal, polyoma virus enhancer/origin, and SV40 enhancer/origin. The resulting fragment was ligated to a larger fragment of PvuII-digested PUC19. An internal deletion was introduced between unique BamHI and BclI sites present in the DCM8 portion. The stuffer sequence flanked by XbaI sites was replaced with a synthetic polylinker coding for 5′-KpnI/Asp718-EcoRV-BamHI -MscI-NheI-3′, followed by a stretch of 5′-[…]-3′ (SEQ ID NO:48) which can function as a universal termination signal for protein translation. The coding sequence of the luciferase [de Wet, et al., Mol. Cell. Biol. 7: 725-737 (1987)] and human TRβ, RARα, and VDR was placed in the polylinker region of the pCMX, generating pCMX-LUC, Pcmx-Htrβ, pCMX-hRARα, and pCMX-hVDR, respectively. The translation start site of the RARα was modified to […] by attaching the synthetic linker encoding a consensus translation start signal [Hollenberg, et al., Cell 55: 899-906 (1988)]. […]
# TRβ = target: T2, TRβ (Homo sapiens, UniProt P10828); test: Gel retardation DNA-binding assay with TRβ-expressing COS cell extracts; parameters: expressed in transfected cells; host or cells: COS cells (whole-cell extract); conditions: gel retardation; TRβ COS cell extract
# T2 sequence (P10828 1-461): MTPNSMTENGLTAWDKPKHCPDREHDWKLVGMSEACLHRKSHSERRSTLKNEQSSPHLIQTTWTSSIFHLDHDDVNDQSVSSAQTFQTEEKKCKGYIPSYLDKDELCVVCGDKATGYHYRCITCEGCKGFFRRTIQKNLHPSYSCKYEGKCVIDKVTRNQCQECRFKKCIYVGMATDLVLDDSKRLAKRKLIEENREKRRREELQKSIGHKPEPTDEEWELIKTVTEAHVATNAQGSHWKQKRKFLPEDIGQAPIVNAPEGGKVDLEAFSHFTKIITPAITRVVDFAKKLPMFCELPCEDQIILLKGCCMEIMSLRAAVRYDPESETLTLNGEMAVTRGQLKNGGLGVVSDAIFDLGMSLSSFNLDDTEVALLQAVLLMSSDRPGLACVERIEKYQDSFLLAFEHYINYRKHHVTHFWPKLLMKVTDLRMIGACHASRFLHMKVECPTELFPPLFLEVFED
# Protocol: For DNA binding assays, COS cells were cultured in DMEM with 10% calf bovine serum and transfected by the calcium phosphate method with 20 μg of the pCMX receptor expression plasmid for 6 hours followed by a glycerol shock. After incubating the transfected COS cells for another 48 hours, the cells were harvested to prepare extracts for the DNA binding assay, carried out as described by Damm et al., Nature 339: 593-597 (1989). The extracts were made in 20 mM HEPES (pH 7.4), 0.4 M KCl, 2 mM DTT and 20% glycerol. A similar method was employed to prepare a whole cell extract from F9 stem cells. For the binding, 5 μg (COS) or 10 μg (F9) of proteins was incubated on ice for 20 minutes, first in 20 mM HEPES, 80 mM KCl, 1 mM DTT, 0.1% NP40, 2.5 μg of poly dI/dC, and 10% glycerol (cold competitor oligonucleotides, when included, were added during this pre-incubation period). Then 40 fmole of ^32P-labeled oligonucleotide probe (1-2×10^5 cpm, prepared by filling-in reaction using Klenow polymerase in the presence of α-^32P-dCTP) was added to the reaction mixture, followed by incubation at room temperature for 30 minutes. The receptor-DNA complexes were resolved by electrophoresis through 5% polyacrylamide gel containing 5% glycerol at 6 V/cm at room temperature.
# Oligonucleotides listed in FIG. 3 were used as a probe to test specific DNA-binding of the RARα and TRβ in a gel retardation assay.
# Using the mobility shift assay, the DNA-binding capacity of extracts from COS cells expressing TRβ and RARα to these sequences was also tested.
# endogenous RA receptor = test: Delta-MTV-CAT constructs, RA induction in CV-1 cells without cotransfected RAR expression vector; format: cell-based, monkey
# Protocol: as §2
# RAR [2] = target: T3, RAR (Homo sapiens, UniProt P10276); test: Delta-MTV constructs, RA induction in CV-1 cells with cotransfected RAR expression vector; format: cell-based; conditions: Delta-MTV-CAT constructs; CV-1 cells
# T3 construct: expressed in transfected cells; host or cells: CV-1 (monkey kidney)
# T3 sequence (P10276 1-462): T1 sequence (P10276 1-462)
# Protocol: as §1, §2
substance,measurement,setting,value
"βRE4: construct containing a single copy of either the 5′- or 3′- half site (SEQ ID NO:8) (AAGCTTCGAAAGTTCACTCGCATAGCTT; listed as DNA, chemistry not given here)",function of single half-site constructs,RAR [1],functional only upon cotransfection of RAR expression vectors
"DR-4: perfect tandem repeat of AGGTCA hexamers separated by 4 nucleotides (SEQ ID NO:27) (AGCTTCAGGTCACAGGAGGTCAGAGAGCT; DNA, backbone not given here; double-stranded DNA response element with agct overhangs, cloned into reporter)",RA response (in words),RARα,clear activity
same,TRβ binding to labeled oligonucleotide probe,TRβ,specific protein-DNA complex
"5′-AAGCTTAAG-GGTTCA-CCGAA-AGTTCA-CTCAGCTT-3′ (SEQ ID NO:7) (AAGCTTAAGGGTTCACCGAAAGTTCACTCAGCTT; listed as DNA, chemistry not given here) [βRE3, oligonucleotide including the β retinoic acid response element]",RA-dependent induction in the absence of cotransfected RAR expression vector,endogenous RA receptor,robust RA-dependent induction
same,increase of induction by cotransfection of RAR-alpha expression vector,RAR [2],two-fold
"βRE5: construct containing a single copy of either the 5′- or 3′- half site (SEQ ID NO:9) (AAGCTTAAGGGTTCACCGAGCTT; listed as DNA, chemistry not given here)",function of single half-site constructs,RAR [1],functional only upon cotransfection of RAR expression vectors

# From patent US6492137B1, “Response element compositions and assays employing same” (The Salk Institute for Biological Studies, priority 1989, dated 2002)
